The test system of one series is HepG2. As to the kind of experiment: Antitumor immunity activity against human HepG2 cells expressing human PD-L1 co-cultured with human Jurkat T cells expressing human PD-1 assessed as reduction in cell viability at 10 uM incubated for 48 hrs by CCK8 assay relative to control. Type of series: functional.
Series [1] concerns the target Programmed cell death protein 1/Programmed cell death 1 ligand 1 (Homo sapiens, UniProt Q9NZQ7). As to the kind of experiment: Inhibition of interaction of PD-1 (unknown origin) expressed in Jurkat T cells carrying luciferase reporter under the control of NFAT promoter/PD-L1 (unknown origin) expressed in CHO cells co-expressing TCR ligand and T-cell surrogate pretreated with CHO cells for 0.5 hrs followed by Jurkat T cell addition and measured after 5 hrs by luminescence based analysis.

A short description of series [2]: MRT (0 to t) in Sprague-Dawley rat at 1 mg/kg, iv administered as single dose and measured after 48 hrs by HPLC-MS/MS analysis. Format: ADME, organism-based. To be noted: in vivo.
A short description of series [3]: Half-life in Sprague-Dawley rat at 1 mg/kg, iv administered as single dose and measured after 48 hrs by HPLC-MS/MS analysis. Format: ADME, organism-based. The following applies: in vivo.
Series [4] can be described thus: Apparent volume of distribution in Sprague-Dawley rat at 1 mg/kg, iv administered as single dose and measured after 48 hrs by HPLC-MS/MS analysis. Type of series: ADME, organism-based. To be noted: in vivo, read-out: Vz.
The nature of series [5]: AUC (0 to t) in C57BL/6 mouse at 50 mg/kg, ip measured after 4 hrs by HPLC-MS/MS analysis. Format: ADME, organism-based. On the set-up: time 4 hrs, dose 50 mg/kg, route ip. To be noted: in vivo.
A short description of series [6]: MRT (0 to t) in C57BL/6 mouse at 50 mg/kg, ip measured after 4 hrs by HPLC-MS/MS analysis. Type of series: ADME, organism-based. To be noted: in vivo.
For series [7], the system named is B16-F10. As to the kind of experiment: Antitumor activity against mouse B16-F10 cells implanted in BALB/c mouse assessed as reduction in tumor volume at 50 mg/kg, ip administered once daily for 14 days relative to control. To be noted: time 14 day. On the set-up: scale not given: the % may be the effect or the level left. Type of series: functional.
The subject of series [8] is B16-F10. In words: Antitumor activity against mouse B16-F10 cells implanted in syngeneic C57BL/6 mouse assessed as inhibition of tumor growth at 50 mg/kg, ip measured after 12 days. Type of series: functional, organism-based. The following applies: time 12.0 day.
The nature of series [9]: Drug concentration in brain of C57BL/6 mouse implanted with mouse B16-F10 cells at 50 mg/kg, ip measured after 1 hrs by UPLC-MS/MS analysis. Type of series: ADME, organism-based. To be noted: read-out: Ct.
Series [10] is described as follows: Drug concentration in spleen of C57BL/6 mouse implanted with mouse B16-F10 cells at 50 mg/kg, ip measured after 2 hrs by UPLC-MS/MS analysis. Type of series: ADME, organism-based. The following applies: read-out: Ct.
The nature of series [11]: Drug concentration in lung of C57BL/6 mouse implanted with mouse B16-F10 cells at 50 mg/kg, ip measured after 2 hrs by UPLC-MS/MS analysis. To be noted: read-out: Ct. Format: ADME, organism-based.
Series [12] is described as follows: Drug concentration in kidney of C57BL/6 mouse implanted with mouse B16-F10 cells at 50 mg/kg, ip measured after 4 hrs by UPLC-MS/MS analysis. Type of series: ADME, organism-based. To be noted: read-out: Ct.

This is an account of results in ChEMBL document CHEMBL5346977, “Discovery of Novel d-(+)-Biotin-Conjugated Resorcinol Dibenzyl Ether-Based PD-L1 Inhibitors for Targeted Cancer Immunotherapy” (J Med Chem, 2023).

SMILES strings stand for the structures. Activity calls are given as the source filed them. No cut-off for these calls is given here.

Sequence of Programmed cell death protein 1/Programmed cell death 1 ligand 1 (Q15116 whole entry): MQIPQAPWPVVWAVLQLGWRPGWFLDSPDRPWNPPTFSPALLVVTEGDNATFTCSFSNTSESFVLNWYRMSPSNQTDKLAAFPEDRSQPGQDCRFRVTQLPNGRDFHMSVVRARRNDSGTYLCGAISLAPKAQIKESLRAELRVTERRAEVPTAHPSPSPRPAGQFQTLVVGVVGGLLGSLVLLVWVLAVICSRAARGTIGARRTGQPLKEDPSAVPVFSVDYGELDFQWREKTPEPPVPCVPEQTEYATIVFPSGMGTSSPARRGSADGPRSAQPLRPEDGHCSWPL
Sequence of Programmed cell death protein 1/Programmed cell death 1 ligand 1 (Q9NZQ7 whole entry): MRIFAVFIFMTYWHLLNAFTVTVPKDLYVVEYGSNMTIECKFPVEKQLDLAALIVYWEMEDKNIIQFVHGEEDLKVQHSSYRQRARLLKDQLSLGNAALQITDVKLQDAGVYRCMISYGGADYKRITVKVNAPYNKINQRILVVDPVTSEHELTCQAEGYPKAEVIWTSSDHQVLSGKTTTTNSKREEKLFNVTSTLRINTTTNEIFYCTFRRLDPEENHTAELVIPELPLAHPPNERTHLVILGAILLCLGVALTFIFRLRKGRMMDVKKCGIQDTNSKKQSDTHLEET

Turning to `Cc1c(COc2cc(OCc3cccc(C#N)c3)c(CN3CCCCC3C(=O)NCCNC(=O)CCCC[C@@H]3SC[C@@H]4NC(=O)N[C@@H]43)cc2Cl)cccc1-c1ccccc1` (stereo partly drawn), the Activity in the series on HepG2 is 2.7%; in the series with B16-F10 [7], 76.5%. In addition, the EC50 in series [1] came out at 920 nM. Further, the MRT last at 48 h in series [2] is 11.6 h. For the same compound, the half-life in series [3] was 18.1 h. The Vd in series [4] is 31 L/kg. The compound further came in with an AUCt in series [5] of 4673.237 µg/L/h. Besides, in [6], the MRT last at 4 h was 2.24 h. Moreover, the outcome in the series on B16-F10 [8] was Active. The concentration at 1 h in series [9] was found to be 3 ng/mL. For the same compound, the concentration at 2 h in series [10] amounted to 7180 ng/mL; in [11], 94.9 ng/mL. For the same compound, the concentration at 4 h in [12] was determined as 380 ng/mL.
